# Experiments:
# [1] = Blood cell count in tumor bearing mice; assay type: in vivo, mouse; settings: 3 times/week, 8 weeks
# Procedure: Figure 8 HB-19 inhibits tumor growth in the nude mice. (A) HB-19 inhibits the growth of MDA-MB-231 tumor-cell xenografts. Cells (2×10^6) were injected subcutaneously into the right flank of female nude mice. Two weeks later, mice with a palpable tumor of approximately 40 mm^3 in volume were randomly separated into three groups (n = 5) and were given peritumoral injections 3 times/week of 0.1 ml PBS alone (Control), HB-19 (5 mg/kg), or Tamoxifen (Tmx) 10 mg/kg) for 6 weeks. (B) HB-19 inhibits the growth of MDA-MB-435 tumor-cell xenografts. Cells (1×10^6) were injected in the mammary fat pad of female nude mice. Two weeks later, mice with a palpable tumor were randomly separated into three groups (n = 10) and were given intraperitoneal injections 3 times/week of 0.1 ml PBS alone (Control), HB-19 (5 mg/kg), or 5-fluouracil (5-FU, 40 mg/kg) for 8 weeks. At the end of each experiment (in A and B), mice were sacrificed and the tumors were excised and weighed. The results are presented as the mean weight ±standard deviation (±S.D.) obtained from the number of mice in each group. (C, D) Inhibition of tumor development in mice treated by intraperitoneal (i.p.) and subcutaneous (s.c.) administration of HB-19. MDA-MB-231 tumor bearing mice in three groups (n = 10) were treated with HB-19 (10 mg/kg) by i.p. or s.c. injections, 3 times/week for 28 days. […] Statistical significance: *p<0.05, **p<0.01, ***p<0.001.
# Blood samples were collected by cardiac puncture. Hematocrit level, white blood cells and platelets count were determined individually in whole blood anticoagulated with EDTA (1 mM) at room temperature. Blood cell count was analyzed with an automated flow cytometric blood cell counter (Cell-Dyn 3500, Abbott Laboratories, Rungis, France).
# [2] = test system: MDA-MB-435 cells; test: Colony formation in soft agar, MDA-MB-435; assay type: cell-based, human; settings: 5 µM HB-19, MDA-MB-435
# Procedure: (§1) Figure 4 HB-19 inhibits colony formation in soft agar by tumor cell lines. (A) MDA-MB-231 cells in culture medium were seeded in triplicate in the absence (histogram C) or presence of 0.1, 0.5 and 1 of µM HB-19, or 0.1 µM of the anti-nucleolin mAb MS-3 or control IgG, or 10 µM bisphosphonate (BisP). (B) Various tumor cell lines (as indicated) in culture medium were seeded in triplicate in the absence (histogram Control) or presence of 5 µM HB-19. After 10–21 days, colonies with diameters greater than 50 µm were scored as positive. Statistical significance: *0.01<p<[…], **p<0.01, ***p<0.001.
# (§2) Carcinoma cells (2×10^4) were mixed in 0.35% top agar, diluted in complete medium (DMEM containing 10% FBS) in the absence or presence of HB-19, and plated onto 0.8% bottom agar into 12-well plates. Cells were treated twice a week during 10 to 21 days. Colonies with diameters greater than 50 µm were scored as positive using a phase contrast microscope equipped with a measuring grid at magnification 100× [45]. The number of colonies was determined by analyzing 5 fields/well from 3 wells and the test was repeated at least twice.
# [3] = test system: HUVECs; test: FACScan competition of HB-19/Btn binding to HUVECs; parameters: species or system human; settings: 1 µM HB-19/Btn, 4 °C, competitor 50 µM
# Procedure: Figure 3 Specific binding and entry of HB-19 in endothelial cells. (A) HB-19/Btn forms a stable complex with nucleolin expressed on the surface of HUVECs. Cells were incubated (45 min, 20°C) with 0, 1, 2, 4, 8 and 12 µM of HB-19/Btn before preparation of surface/cytoplasmic and nuclear extracts and recovery of surface nucleolin from the surface/cytoplasmic extracts as in Figure 2A. Material extracted from 2×10^7 and 2×10^6 cells was analyzed in panels Surface and Surface/Cytoplasm or Nucleus, respectively. Immunoblotting was with the anti-nucleolin mAb D3. (B) The specific binding of HB-19/Btn to HUVECs. The binding of 1 µM HB-19/Btn was studied at 4 °C by FACScan analysis. To show the specificity of binding, the reaction was carried out in the absence or presence of 50 µM HB-19, F3, or 9Arg peptides. The ordinate gives the relative cell number, whereas the abscissa gives the relative fluorescence intensity. (C) HB-19 entry in HUVECs. Cells were incubated with 5 µM of HB-19/Btn (1 hour, 37°C) before fixation in PFA (for surface binding) or PFA-Triton (for entry), respectively. Cells were then successively incubated with rabbit anti-biotin antibodies and goat Texas Red-conjugated anti-rabbit IgG, and processed for confocal microscopy. The scans of cells toward the middle cell layer are presented (with the DAPI stained nuclei).
# [4] = test system: chick embryo chorioallantoic membrane; test: Chick embryo chorioallantoic membrane (CAM) angiogenesis assay; assay type: in vivo, chicken; settings: 48 h; for relative percent inhibition of angiogenesis: total vessel length vs control, P<0.001, 15–20 eggs
# Procedure: Figure 7 Inhibition of in vivo angiogenesis by HB-19 in chick embryo chorioallantoic membrane (CAM) assay. Macroscopic observation of the angiogenic response induced by gelatin sponges (1 cm^2), soaked with 40 µl of PBS (Control) or 40 µl PBS containing HB-19 at concentrations of 10, 20 and 50 µM (corresponding to 0.4, 0.8 and 2 nmols of HB-19, respectively). After 48 h, CAMs were fixed and excised from the eggs . Photographs were taken and the total length of the vessels was measured using the Image PC image-analysis software (Scion Corporation, USA)[48]. Each sample was tested three times using 15–20 eggs for each data point. The relative percent inhibition (P<0.001) of angiogenesis compared to the control was 27, 36 and 51% in the presence of 0.4, 0.8 and 2 nmols of HB-19, respectively.
# Leghorn fertilized eggs (Pindos, Greece) were incubated for 4 days at 37°C. A window was then opened on the eggshell, exposing the CAM. The window was covered with sterile tape, and the eggs were returned to the incubator. On day 9 of embryo development, 20 µl of distilled water alone as a control or containing HB-19 was applied on a 1-cm2 area of the CAM inside a silicon ring. After 48 hours of incubation at 37°C, CAMs were fixed in situ with saline-buffered formalin, excised from the eggs, placed on slides, and left to dry in air. Photographs were taken and the total length of the vessels was measured as described.
# [5] = test system: MDA-MB-231 cells; test: Colony formation in soft agar, MDA-MB-231; assay type: cell-based, human
# Procedure: as §1, §2
substance,measurement,setting,value
"pseudo-tripeptide Lysψ(CH2N)-Pro-Arg coupled to a template (H2NLys-Lys-Lys-Gly-Pro-Lys-Glu-Lys-AhxCONH2) [HB-19, pseudopeptide presenting pentavalently the pseudo-tripeptide Lysψ(CH2N)-Pro-Arg coupled to a template]",Eosinophils,"[1]; HB-19 5 mg/kg or 5-FU 40 mg/kg i.p., mean ± SD, n = 10, untreated 0.01±0.02",0.03±0.04 ×10^3/µl
same,Basophils,"[1]; HB-19 5 mg/kg or 5-FU 40 mg/kg i.p., mean ± SD, n = 10, untreated 0.10±0.06",0.09±0.04 ×10^3/µl
same,Monocytes,"[1]; HB-19 5 mg/kg or 5-FU 40 mg/kg i.p., mean ± SD, n = 10, untreated 0.20±0.09",0.23±0.07 ×10^3/µl
same,Neutrophils,"[1]; HB-19 5 mg/kg or 5-FU 40 mg/kg i.p., mean ± SD, n = 10, untreated 0.89±0.39, 5-FU p<0.05",1.03±0.44 ×10^3/µl
same,Lymphocytes,"[1]; HB-19 5 mg/kg or 5-FU 40 mg/kg i.p., mean ± SD, n = 10, untreated 1.84±0.78, 5-FU p<0.01",1.98±1.01 ×10^3/µl
same,Leukocytes,"[1]; HB-19 5 mg/kg or 5-FU 40 mg/kg i.p., mean ± SD, n = 10, untreated 3.05±1.29, 5-FU p<0.05",3.36±1.28 ×10^3/µl
same,Erythrocytes,"[1]; HB-19 5 mg/kg or 5-FU 40 mg/kg i.p., mean ± SD, n = 10, untreated 8.73±0.26, 5-FU p<0.0001",8.31±1.05 ×10^6/µl
same,Platelets,"[1]; HB-19 5 mg/kg or 5-FU 40 mg/kg i.p., mean ± SD, n = 10, untreated 1041±91",1037± 225 ×10^3/µl
same,"effect on number of platelets, erythrocytes and leukocytes","[1]; HB-19 5 mg/kg, intraperitoneal","no effect on the number of platelets, erythrocytes, and leukocytes"
same,colony formation,[2],reduced markedly
same,prevention of HB-19/Btn binding,[3],prevented by the excess HB-19
same,relative percent inhibition of angiogenesis,"[4]; 0.4 nmol HB-19 (10 µM, 40 µl)",27%
same,relative percent inhibition of angiogenesis,"[4]; 0.8 nmol HB-19 (20 µM, 40 µl)",36%
same,relative percent inhibition of angiogenesis,"[4]; 2 nmol HB-19 (50 µM, 40 µl)",51%
same,blood vessel branching and development,"[4]; HB-19 10, 20 and 50 µM",impaired significantly blood vessel branching and development in a dose-dependent manner
same,reduction of colony-forming capacity,"[5]; 1 µM HB-19, triplicate, colonies >50 µm, 10–21 days",50%
same,colony formation,"[5]; 5 µM HB-19, MDA-MB-231",reduced markedly
same,reduction of colony-forming capacity,"[5]; HB-19 0.1, 0.5 and 1 µM, anti-nucleolin mAb MS-3 0.1 µM",reduced significantly
